Test results taken from PubChem BioAssay (NCI).
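Exposure lasted 48 hours, with cells grown in 96-well plates and compounds tested at five concentrations. At the GI50, growth is halved. At the TGI there is no net growth.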

Tests used:
Assay in all cases: NCI tumour cell line growth inhibition, 48 h
A549 NSCLC = test system: A549 NSCLC
DLD-1 colon = test system: DLD-1 colon
DMS 114 small cell lung = test system: DMS 114 small cell lung
DMS 273 small cell lung = test system: DMS 273 small cell lung
HCC-2998 colon = test system: HCC-2998 colon
HOP-18 NSCLC = test system: HOP-18 NSCLC
IGROV1 ovarian = test system: IGROV1 ovarian
KM20L2 colon = test system: KM20L2 colon
LOX IMVI melanoma = test system: LOX IMVI melanoma
LXFL 529 NSCLC = test system: LXFL 529 NSCLC
RXF 393 renal = test system: RXF 393 renal
SNB-78 CNS = test system: SNB-78 CNS
XF 498 CNS = test system: XF 498 CNS
M19-MEL melanoma = test system: M19-MEL melanoma
P388/ADR leukemia = test system: P388/ADR leukemia
SN12K1 renal = test system: SN12K1 renal
P388 leukemia = test system: P388 leukemia

Structure (SMILES)	TGI (A549 NSCLC)	TGI (DLD-1 colon)	TGI (DMS 114 small cell lung)	TGI (DMS 273 small cell lung)	TGI (HCC-2998 colon)	TGI (HOP-18 NSCLC)	TGI (IGROV1 ovarian)	TGI (KM20L2 colon)	TGI (LOX IMVI melanoma)	TGI (LXFL 529 NSCLC)	TGI (RXF 393 renal)	TGI (SNB-78 CNS)	TGI (XF 498 CNS)	TGI (M19-MEL melanoma)	TGI (P388/ADR leukemia)	TGI (SN12K1 renal)	TGI (P388 leukemia)	GI50 (DMS 114 small cell lung)	GI50 (KM20L2 colon)	GI50 (RXF 393 renal)
O=C1C=C2S[C@H]3C[C@]2(C=C1Br)c1c(c(O)c2c4c1=NCCC=4C=N2)N3	6.85 µM	2.06 µM	0.404 µM	2.39 µM	4.98 µM	3.23 µM	2.92 µM	1.93 µM	1.27 µM	0.395 µM	0.947 µM	3.79 µM	2.78 µM							
COC1/C=C\C=C(/C)C(=O)NC2=CC(=O)C=C(C2=O)C(OC)C(C)CC(OC)C(OC)C(C)/C=C(/C)C1OC(N)=O (stereo not drawn)	32.4 µM	8.02 µM	10.1 µM	27.3 µM	15.9 µM		26 µM	17.2 µM	13.8 µM			17.2 µM	4.83 µM	18 µM	3.47 µM	14.7 µM				
CSCCC(NC(=O)C(Cc1ccccc1)NC(=O)CNC(=O)CNC(=O)C(N)Cc1ccc(O)cc1)C(=O)O (stereo not drawn)	> 100 µM		> 100 µM	> 100 µM	> 100 µM	> 100 µM	> 100 µM	> 29 µM	> 100 µM		> 100 µM	> 100 µM		> 100 µM	> 100 µM	> 100 µM	> 100 µM			
C=CCn1c2ccccc2c2c(C)c3cnccc3c(C)c21	> 97.6 µM	> 121 µM		37.7 µM	104 µM	> 125 µM	95.3 µM	112 µM	60 µM		24.5 µM	125 µM	28.7 µM	58 µM	37.3 µM	52.5 µM	20.8 µM			
CC(=O)OC1C=CC2CCN3C(=O)c4cc5c(cc4[C@H]1C23)OCO5 (stereo partly drawn)	> 100 µM	> 100 µM	> 100 µM	> 100 µM			> 100 µM	> 100 µM	> 100 µM	> 100 µM	> 100 µM	> 100 µM		> 100 µM						
COc1ccc(/C=C2/C(=O)N(C(=O)c3ccccc3O)N=C2C)cc1OC	> 100 µM	> 100 µM	3.61 µM		> 100 µM			> 100 µM	> 54.2 µM	> 100 µM	0.097 µM	> 100 µM	> 100 µM	65.4 µM						
NCCCNCCSSCc1ccccc1CSSCCNCCCN	> 100 µM	> 100 µM	> 100 µM	> 100 µM	> 100 µM	> 100 µM	> 100 µM	> 100 µM	> 100 µM	> 100 µM	> 100 µM	> 100 µM	> 100 µM	> 100 µM						
CN(C)c1cccc(-c2cc(=O)c3ccccc3[nH]2)c1	> 100 µM	> 100 µM	> 100 µM	> 100 µM	> 100 µM		> 100 µM	> 100 µM	> 100 µM	> 100 µM	> 100 µM	> 100 µM		> 100 µM				46 µM	34.5 µM	35.4 µM
Cc1ccc2nc3c(C(=O)NCCN(C)C)cccc3cc2c1	4 µM	8.85 µM	5.32 µM	6.02 µM	14.8 µM	5.76 µM	6.5 µM	5.58 µM	6.4 µM		7.02 µM	15 µM	3.67 µM	4.66 µM	4.69 µM	3.35 µM				
CC(/C=C/c1ncccc1OCCCCCC(=O)O)=N\NC1=NCCN1	> 100 µM	> 100 µM	> 100 µM	> 100 µM	> 100 µM		> 100 µM	> 100 µM	> 100 µM	> 100 µM	> 100 µM		> 100 µM	> 100 µM						
C#CCNC(=O)CCC(N)C(=O)O (stereo not drawn)	> 100 µM	> 100 µM	> 100 µM	> 100 µM	> 100 µM	> 100 µM	> 100 µM	> 100 µM	> 100 µM		> 100 µM	> 100 µM	> 100 µM	> 100 µM	> 100 µM	> 100 µM	> 100 µM			
COc1ccc2c(=O)c([Se]c3coc4cc(OC)ccc4c3=O)coc2c1	> 100 µM	> 100 µM	42.9 µM	> 100 µM	> 100 µM	> 100 µM	> 100 µM	> 100 µM	> 100 µM	> 100 µM	> 100 µM	67 µM	> 100 µM	> 100 µM						
